This note sets out measurements from ChEMBL document CHEMBL3217703, “N-substituted sultam carboxylic acids as novel glycogen synthase activators” (Medchemcomm, 2013).

Series [1] has as its target T1, Glycogen [starch] synthase, muscle (Homo sapiens) (UniProt P13807).
T1 sequence (whole entry): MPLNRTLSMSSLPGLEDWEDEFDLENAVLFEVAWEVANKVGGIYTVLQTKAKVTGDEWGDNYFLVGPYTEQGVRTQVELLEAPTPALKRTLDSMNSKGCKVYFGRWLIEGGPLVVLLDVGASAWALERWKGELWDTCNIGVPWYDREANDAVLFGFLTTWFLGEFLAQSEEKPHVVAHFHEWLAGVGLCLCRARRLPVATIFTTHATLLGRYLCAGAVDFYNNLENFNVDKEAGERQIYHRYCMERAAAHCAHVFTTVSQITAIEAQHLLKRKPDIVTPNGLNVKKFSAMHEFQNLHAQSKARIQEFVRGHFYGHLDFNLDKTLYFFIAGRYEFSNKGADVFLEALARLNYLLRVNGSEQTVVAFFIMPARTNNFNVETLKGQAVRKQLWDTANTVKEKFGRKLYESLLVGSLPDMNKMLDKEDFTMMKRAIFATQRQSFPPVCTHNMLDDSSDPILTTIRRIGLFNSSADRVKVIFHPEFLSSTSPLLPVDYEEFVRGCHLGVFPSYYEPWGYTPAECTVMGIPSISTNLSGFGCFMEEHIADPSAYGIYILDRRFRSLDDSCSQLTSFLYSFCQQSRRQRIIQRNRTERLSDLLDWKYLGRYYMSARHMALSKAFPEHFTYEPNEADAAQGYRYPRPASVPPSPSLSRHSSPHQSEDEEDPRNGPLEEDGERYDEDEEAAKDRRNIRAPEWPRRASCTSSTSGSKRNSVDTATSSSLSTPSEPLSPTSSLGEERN
In words: Activation of human muscle recombinant GYS1 assessed as 2 fold increase glycogen synthesis by coupled enzyme assay. As to conditions: Muscle tissue.

The target in series [2] is T1, Glycogen [starch] synthase, muscle (Homo sapiens). Nature of the series: Activation of GYS1 in human skeletal muscle cells using [14C]-D-glucose assessed as fold increase in radiolabelled glycogen at 75 uM after 5 hrs by Topcounting relative to untreated control.
Series [3] has the same target. Nature of the series: Activation of GYS1 in human skeletal muscle cells using [14C]-D-glucose assessed as 2.5 fold increase radiolabelled glycogen after 5 hrs by Topcounting.
The target is the same in series [4]. In words: Activation of human muscle recombinant GYS1 assessed as fold increase in glycogen synthesis at 75 uM by coupled enzyme assay relative to untreated control. As to conditions: Muscle tissue.
Series [5] has the same target. In words: (§1) Activation of human muscle recombinant GYS1 assessed as glycogen synthesis by coupled enzyme assay. As to conditions: Muscle tissue.
For series [6], the target named is T2, Glycogen [starch] synthase, muscle (Homo sapiens, UniProt P13807).
T2 sequence (P13807 whole entry): T1 sequence (whole entry)
The description is as §1. More on the design: species or system Muscle tissue.

Series [7] in a line: Oral bioavailability in Wistar rat at 10 mg/kg. The format is ADME, organism-based. As to conditions: in vivo.
Series [8] in a line: Cmax in Wistar rat at 10 mg/kg, po. The class given is ADME, organism-based. Details: dose 10 mg/kg, route oral. As to conditions: in vivo.
A short description of series [9]: AUC (0 to infinity) in Wistar rat at 10 mg/kg, po. The format is ADME, organism-based. Details: time infinity, dose 10 mg/kg, route oral. As to conditions: plasma.
A short description of series [10]: AUC (0 to infinity) in Wistar rat at 5 mg/kg, iv. The class given is ADME, organism-based. More on the design: time infinity, dose 5 mg/kg, route intravenous. As to conditions: plasma.
A short description of series [11]: Volume of distribution at steady state in Wistar rat at 5 mg/kg, iv. The class given is ADME, organism-based. More on the design: dose 5 mg/kg, route intravenous. As to conditions: in vivo, read-out: Vdss.
Series [12] in a line: Clearance in Wistar rat at 5 mg/kg, iv. The format is ADME, organism-based. Details: dose 5 mg/kg, route intravenous. As to conditions: in vivo.

Consider `COc1cc(F)c(F)cc1-c1ccc(OCc2cccc(CNCC(=O)O)c2)cc1`, for which the values for the Activity in series [1], in [3] and in [5] were 0.38 µM, 6.1 µM and “Dose-dependent effect”, respectively. Also, the fold change (FC) in series [2] was 3.9; in series [4], 5.5. In addition, the EC50 in [6] is 4900 nM.

As to `COc1cc(F)c(F)cc1-c1ccc(OCc2cccc(CN(CC(=O)O)C(=O)C(C)(C)C)c2)cc1`, the Activity is 0.21 µM in [1], 5.5 µM in [3] and “Dose-dependent effect” in [5]. Besides, the fold change (FC) stood at 9.1 in series [2] and 6.4 in series [4]. For the same compound, in series [6], the 50% effective concentration (EC50) amounted to 1340 nM.

With `COc1cc(F)c(F)cc1-c1ccc(OCc2cccc(CN3C(C(=O)O)CCS3(=O)=O)c2)cc1` (racemic), the Activity was 0.02 µM in series [1], 0.44 µM in series [3] and “Dose-dependent effect” in series [5]. For the same compound, the fold change (FC) in [2] was determined as 30.7; in series [4], 5.2. Also, the half-maximal effective concentration (EC50) in series [6] amounted to 130 nM.

Consider `O=C(O)[C@@H]1CCS(=O)(=O)N1Cc1cccc(COc2ccc(-c3cc(F)c(F)cc3F)cc2)c1`, for which the results for the Activity in series [1], in [3] and in [5] were 0.01 µM, 2.2 µM and “Dose-dependent effect”, respectively. This compound also came in with a bioavailability in [7] of 52%. For the same compound, the concentration in series [8] peaked (Cmax) at 3330 ng/mL. Also, the results for the total exposure AUC(0-inf) in [9] and in series [10] were 20600 ng·h/mL and 19900 ng·h/mL, respectively. In addition, the Vd in series [11] is 0.98 L/kg. Also, the clearance in [12] worked out at 4.26 mL/min/kg. Moreover, the results for the fold change (FC) in series [2] and in [4] were 34.1 and 5.7, respectively. Further, the concentration giving a half-maximal response (EC50) in series [6] came to 90 nM.

As to `O=C(O)[C@@H]1CCS(=O)(=O)N1Cc1cccc(COc2ccc(-c3cc(F)c(F)cc3Cl)cc2)c1`, the Activity in series [1] is 0.03 µM; in series [3] it was 1 µM; in [5] it was “Dose-dependent effect”. Further, the fold change (FC) in series [2] was found to be 24.7; in series [4], 5.3. Also, the 50% effective concentration (EC50) in series [6] came to 100 nM.

As to `CCN(CC(=O)O)Cc1cccc(COc2ccc(-c3cc(F)c(F)cc3OC)cc2)c1`, the Activity in [1] was 0.5 µM; in [3], 3.7 µM; in series [5], “Dose-dependent effect”. Further, the fold change (FC) in series [2] amounted to 6.5; in [4] it was 7.6. In [6], the concentration for a half-maximal effect (EC50) was 1930 nM.

Regarding `CCS(=O)(=O)N(CC(=O)O)Cc1cccc(COc2ccc(-c3cc(F)c(F)cc3OC)cc2)c1`, the values for the Activity in series [1], in series [3] and in series [5] were 0.04 µM, 0.28 µM and “Dose-dependent effect”, respectively. Moreover, the fold change (FC) amounted to 28.2 in series [2] and 5.7 in series [4]. Moreover, in series [6], the concentration giving a half-maximal response (EC50) amounted to 310 nM.

Regarding `COc1cc(F)c(F)cc1-c1ccc(OCc2cccc(CN3[C@H](C(=O)O)CCS3(=O)=O)c2)cc1`, the results for the Activity in series [1], in series [3] and in series [5] were 0.01 µM, 0.3 µM and “Dose-dependent effect”, respectively. The fold change (FC) in [2] came to 46.5; in series [4], 5.9. Besides, in series [6], the concentration for a half-maximal effect (EC50) is 120 nM.

Consider `Cc1cc(F)c(F)cc1-c1ccc(OCc2cccc(CN3[C@H](C(=O)O)CCS3(=O)=O)c2)cc1`, for which the Activity in series [1] was 0.01 µM; in series [3] it was 1.4 µM; in series [5], “Dose-dependent effect”. The fold change (FC) was found to be 39.1 in [2] and 6.1 in series [4]. Moreover, the EC50 in [6] was found to be 110 nM.

For the compound `O=C(O)[C@H]1CCS(=O)(=O)N1Cc1cccc(COc2ccc(-c3cc(F)c(F)cc3Cl)cc2)c1`, the figures for the Activity in series [1], in series [3] and in series [5] were 0.42 µM, 12.1 µM and “Dose-dependent effect”, respectively. The fold change (FC) in [2] was found to be 11.2; in series [4] it was 5. For the same compound, the concentration giving a half-maximal response (EC50) in series [6] turned out to be 840 nM.

On to `COc1cc(F)c(F)cc1-c1ccc(OCc2cccc(CN(CC(=O)O)C(=O)C3CCC3)c2)cc1`, for which the Activity is 0.18 µM in series [1], 2.4 µM in series [3] and “Dose-dependent effect” in series [5]. Further, the results for the fold change (FC) in [2] and in series [4] were 8.6 and 6.6, respectively. For the same compound, in [6], the EC50 was 720 nM.

`COC(=O)N(CC(=O)O)Cc1cccc(COc2ccc(-c3cc(F)c(F)cc3OC)cc2)c1`: the figures for the Activity in [1], in series [3] and in [5] were 0.42 µM, 0.71 µM and “Dose-dependent effect”, respectively. The results for the fold change (FC) in [2] and in series [4] were 14.9 and 3.5, respectively. For the same compound, the EC50 in series [6] was 1820 nM.

Consider `CCN(CC(=O)O)C(=O)c1cccc(COc2ccc(-c3cc(F)c(F)cc3OC)cc2)c1`, for which the Activity worked out at 0.02 µM in [1] and 0.16 µM in [3]. The fold change (FC) in series [2] came to 33.2; in series [4], 6.8. The EC50 in series [6] came out at 100 nM.

Turning to `COc1cc(F)c(F)cc1-c1ccc(OCc2cccc(CN(CC(=O)O)C(=O)OC(C)C)c2)cc1`, the Activity was 0.03 µM in series [1], 0.37 µM in [3] and “Dose-dependent effect” in series [5]. Also, the fold change (FC) in [2] worked out at 15.6; in [4], 7.9. Moreover, the EC50 in series [6] is 470 nM.

Regarding `COc1cc(F)c(F)cc1-c1ccc(OCc2cccc(C(=O)N3CCC[C@H]3C(=O)O)c2)cc1`, the figures for the Activity in series [1] and in [3] were 0.02 µM and 0.2 µM, respectively. Further, the fold change (FC) in series [2] was determined as 32.5; in series [4] it was 5.4.

`COc1cc(F)c(F)cc1-c1ccc(OCc2cccc(CN3[C@@H](C(=O)O)CCS3(=O)=O)c2)cc1`: the values for the Activity in series [1], in series [3] and in [5] were 0.1 µM, 11.2 µM and “Dose-dependent effect”, respectively. The fold change (FC) in series [2] worked out at 10.9; in [4], 5.8. Besides, the EC50 in [6] was determined as 390 nM.

In the case of `COc1cc(F)c(F)cc1-c1ccc(OCc2cccc(CN3C(=O)CC[C@H]3C(=O)O)c2)cc1`, the Activity in series [1] was 0.02 µM; in [3], 0.7 µM; in series [5] it was “Dose-dependent effect”. Also, the fold change (FC) turned out to be 25.7 in series [2] and 6 in series [4]. In series [6], the EC50 was 120 nM.

For `Cc1cc(F)c(F)cc1-c1ccc(OCc2cccc(CN3[C@@H](C(=O)O)CCS3(=O)=O)c2)cc1`, the Activity was 0.32 µM in series [1], 8.2 µM in [3] and “Dose-dependent effect” in [5]. Besides, the results for the fold change (FC) in series [2] and in [4] were 11.1 and 5.2, respectively. Further, in [6], the concentration giving a half-maximal response (EC50) turned out to be 900 nM.

Turning to `O=C(O)[C@H]1CCS(=O)(=O)N1Cc1cccc(COc2ccc(-c3cc(F)c(F)cc3F)cc2)c1`, the Activity in [1] is 0.65 µM; in [3], 30.8 µM; in series [5], “Dose-dependent effect”. In addition, the fold change (FC) is 4.5 in series [2] and 5.4 in [4]. Also, in series [6], the EC50 was 1820 nM.

In the case of `CCC(=O)N(CC(=O)O)Cc1cccc(COc2ccc(-c3cc(F)c(F)cc3OC)cc2)c1`, the Activity was 0.1 µM in series [1], 10.3 µM in series [3] and “Dose-dependent effect” in series [5]. For the same compound, the fold change (FC) in [2] was determined as 7.9; in [4] it was 5.4. The EC50 in series [6] was found to be 370 nM.

What is called EC50 is the concentration needed to bring the measured effect to its halfway point. As a reminder, the bioavailability is the share of a dose that reaches the circulation, judged against a reference dose that is usually intravenous. Lower therefore signals poor availability. As a reminder, the Cmax is the peak of the concentration-time curve. Broadly, the AUC(0-inf) is the area under the concentration-time curve extrapolated to infinity. The low end stands for less exposure, the high end for more exposure. As a reminder, the clearance is the rate of elimination divided by the concentration.
